From patent US10517244B2, “Method to develop herbicide-resistant sugar beet plants” (priority 2012, dated 2019)
Like-named read-outs stand apart in the source and are kept apart here.

Legend:
[1] = test system: sugar beet plants comprising SEQ.ID.NO:3 and SEQ.ID.NO:5 on two different alleles (Line A); test: Greenhouse trial, damage (phytotoxicity) rating after ALS inhibitor treatment, Line A; assay type: in vivo, Beta vulgaris L. ssp. vulgaris
Method: Mutated sugar beet plants comprising SEQ.ID.NO:3 and SEQ.ID.NO:5 (on two different alleles) according to the present invention (as described in Example 4 above, “Line A”) were treated with different ALS inhibitors in direct comparison with sugar beet plants where the tryptophan at position 569 of the encoded ALS enzyme is substituted by a leucine (“Line B”), sugar beet plants described in WO 98/02527 where the proline at position 188 of the encoded ALS enzyme is substituted by a serine (“Line C”), and traditional variety (wild-type) sugar beet plants not having a mutation at positions 569 and 188 (“Line WT”).
Several groups of seeds of the four different mentioned sugar beet plants were sown separately in the greenhouse and grew up to stage BBCH 14 for Beta vulgaris L. ssp. vulgaris (i.e. 4 leaves (the second pair) unfolded) according to the monographie “Entwicklungsstadien mono-und dikotyler Pflanzen”, 2nd edition, 2001, ed. Uwe Meier, Biologische Bundesanstalt für Land und Forstwirtschaft. Subsequently, the resulting separate groups of sugar beet plants were each individually treated with an ALS inhibitor (ALS-in) in the amounts (g/ha) indicated in Table 2.
(§1) On day 14 after application of the respective ALS inhibitor, the damage (i.e. the phytotoxicity) for each sugar beet plant was rated on a scale from 0% (i.e. no damage, no phytotoxicity) to 100% (i.e. the plants were completely killed).
Additionally, typical early phenotypes of each sugar beet plants were inspected after treatment with a mixture comprising thiencarbazone-methyl and foramsulfuron.

[2] = test system: sugar beet plants where the tryptophan at position 569 of the ALS enzyme is substituted by a leucine (Line B); test: Greenhouse trial, damage (phytotoxicity) rating after ALS inhibitor treatment, Line B; assay type: in vivo, Beta vulgaris L. ssp. vulgaris; settings: day 14 after application at stage BBCH 14; scale 0% no damage to 100% completely killed; g/ha per herbicide
From the text: (§2) Uwe Meier, Biologische Bundesanstalt für Land und Forstwirtschaft. Subsequently, the resulting separate groups of sugar beet plants were each individually treated with an ALS inhibitor (ALS-in) in the amounts (g/ha) indicated in Table 2.
as §1

[3] = test system: sugar beet plants where the proline at position 188 of the ALS enzyme is substituted by a serine (Line C); test: Greenhouse trial, damage (phytotoxicity) rating after ALS inhibitor treatment, Line C; assay type: in vivo, Beta vulgaris L. ssp. vulgaris; settings: day 14 after application at stage BBCH 14; scale 0% no damage to 100% completely killed; g/ha per herbicide
From the text: as §2, §1

[4] = test system: traditional variety (wild-type) sugar beet plants (Line WT); test: Greenhouse trial, damage (phytotoxicity) rating after ALS inhibitor treatment, Line WT; assay type: in vivo, Beta vulgaris L. ssp. vulgaris; settings: day 14 after application at stage BBCH 14; scale 0% no damage to 100% completely killed; g/ha per herbicide
From the text: as §2, §1

[5] = test system: regenerated sugar beets having the mutated SEQ.ID.NO:3 (heterozygote); assay type: in vivo, sugar beet; settings: Foramsulfuron 12.5 g/ha, amidosulfuron 15 g/ha, iodosulfuron 3.5 g/ha, thiencarbazone-methyl 7.5 g/ha, up to 3 applications
From the text: (§3) The inventors compared the behaviour of regenerated sugar beets having the mutated SEQ.ID.NO:3 (heterozygote for this mutation) and a wild-type (naive) sugar beet commercial variety.

[6] = test system: dual mutant plant comprising SEQ.ID.NO:3 and SEQ.ID.NO:5 (NCIMB 42050); assay type: in vivo, sugar beet; settings: even when put in composition with organic compounds; compatible with field application
From the text: The inventors then developed a mutated sugar beet plant comprising SEQ.ID.NO:3 and SEQ.ID.NO:5 (on two different alleles). Such resulting dual mutant has been deposited under the Budapest Treaty under NCIMB 42050. A plant comprising both SEQ.ID.NO:3 and SEQ.ID.NO:5 can be generated by relying on several techniques, including, for instance, a subsequent mutagenesis step applied to the single mutant NCIMB 42051.
The inventors then compared the resistance of this dual mutant plant (a mutation in one allele at amino acid 569 and a mutation in the other allele at amino acid 188) with the single mutant (a mutation at position 569) sugar beet.

[7] = test system: stomatal guard cell protoplasts; test: Protoplasts viability under mutagenesis treatment; assay type: cell-based, sugar beet; settings: treatment of more than 0.2% EMS
From the text: Possibly, this method further comprises the step of adding a mutagen agent to the culture of the isolated stomatal guard cell protoplasts.
Suitable mutagen agents are physical (such as UV or X-ray) exposure or exposure to chemical agents (such as Ethyl Methane Sulfonate (EMS), for instance at 0.05%, 0.1%, 0.15%, 0.2% or even at 2.5%).

[8] = test system: homozygote 569/569 mutant sugar beet; settings: WO 2012/049268; cited from earlier work
[9] = test system: sugar beet mutant with proline at position 188 of ALS substituted by a serine; settings: at the necessary dose rate; WO 98/02527 mutant; cited from earlier work
[10] = test system: wild-type (naive) sugar beet commercial variety; test: ALS inhibitor treatment of wild-type sugar beets (Example 3); assay type: in vivo; settings: Foramsulfuron 12.5 g/ha, amidosulfuron 15 g/ha, iodosulfuron 3.5 g/ha, thiencarbazone-methyl 7.5 g/ha
From the text: as §3

[11] = day 14 after application at stage BBCH 14, scale 0% no damage to 100% completely killed, g/ha per herbicide

SMILES | damage (phytotoxicity) average rating, Line A ([1]; in vivo) [%] | damage (phytotoxicity) average rating, Line B [2] [%] | damage (phytotoxicity) average rating, Line C [3] [%] | damage (phytotoxicity) average rating, Line WT [4] [%] | resistance of the (heterozygote) mutated variety to the herbicide [5] | resistance of the dual mutant plant line to the herbicide [6] | damage (phytotoxicity) average rating, Line A [1, 11] [%] | protoplasts viability [7] | resistance of the (heterozygote) mutated variety to the herbicide ([5]; listed as foramsulfuron) | resistance of homozygote 569/569 mutant in field trials [8] | phytotoxicity in field trials on proline 188 serine mutant [9] | sensitivity of the wild-type (naive) plant to the herbicide [10]
COc1cc(OC)nc(NC(=O)NS(=O)(=O)N(C)S(C)(=O)=O)n1 [Amidosulfuron] | 6.3 | 37.5 | 51.9 | 73.1 | same level of resistance | good resistance | – | – | – | – | – | –
COc1cc(OC)nc(Oc2cccc(Oc3nc(OC)cc(OC)n3)c2C(=O)[O-])n1.[Na+] [Bisbyribac-Na] | – | 38.1 | 71.7 | 80.0 | – | – | 17.5 | – | – | – | – | –
CCOS(C)(=O)=O [EMS, Ethyl Methane Sulfonate] | – | – | – | – | – | – | – | detrimentally affected | – | – | – | –
COc1cc(OC)nc(NC(=O)NS(=O)(=O)c2cc(NC=O)ccc2C(=O)N(C)C)n1 [Foramsulfuron] | – | 45.6 | 77.5 | 80.0 | good resistance | – | 26.9 | – | best resistance | good resistance | some phytotoxicity | –
COc1cc(OC)n2nc(S(=O)(=O)Nc3c(Cl)ccc(C)c3Cl)nc2n1 [Metosulam] | – | 40.6 | 69.4 | 79.4 | – | – | 13.1 | – | – | – | – | –
COC(=O)c1csc(C)c1S(=O)(=O)NC(=O)n1nc(OC)n(C)c1=O [Thiencarbazone-methyl] | – | 35.6 | 37.5 | 84.4 | about the same level of resistance as for iodosulfuron | good resistance | 8.1 | – | – | – | – | very sensitive
